According to patent publication US20150105252A1, “SUBSTITUTED PYRAZOLES AS HERBICIDES” (E I DU PONT DE NEMOURS AND COMPANY, priority 2013, published 2015):

Assays:
[1] = system: hairy beggarticks; assay: Test F preemergence; assay type: in vivo, Bidens pilosa
Method in brief: (§1)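 Test chemicals in a non-phytotoxic solvent with surfactant were applied preemergence to seeds sown in silt loam, or postemergence to plants 2–18 cm tall (1- to 4-leaf stage). Plants were kept in a greenhouse for 14–21 days and then rated visually against controls on a 0 (no effect) to 100 (complete control) scale.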

[2] = system: smartweed; assay: Test F postemergence; assay type: in vivo, Polygonum persicaria; settings: 500 g ai/ha, scale 0 to 100
Excerpt: (§2) Seeds of plant species selected from corn (Zea mays), soybean (Glycine max), velvetleaf (Abutilon theophrasti), lambsquarters (Chenopodium album), wild poinsettia (Euphorbia heterophylla), pigweed, palmer (palmer pigweed, Amaranthus palmeri), common waterhemp (Amaranthus rudis), surinam grass (Brachiaria decumbens), large crabgrass (Digitaria sanguinalis), crabgrass, Brazil (Brazilian crabgrass, Digitaria horizontalis), fall panicum (Panicum dichotomiflorum), giant foxtail (Setaria faberii), green foxtail (Setaria viridis), goosegrass (Eleusine indica), johnsongrass (Sorghum halepense), common ragweed (Ambrosia elation), barnyardgrass (Echinochloa crus-galli), southern sandbur (Cenchrus echinatus), arrowleaf sida (Sida rhombifolia), Italian ryegrass (Lolium multiflorum), dayflower, VA (Virginia (VA) dayflower, Commelina virginica), field bindweed (Convolvulus arvensis), cocklebur (common cocklebur, Xanthium strumarium), morningglory (Ipomoea coccinea), nightshade (eastern black nightshade, Solanum ptycanthum), kochia (Kochia scoparia), yellow nutsedge (Cyperus esculentus), and hairy beggarticks (Bidens pilosa), were planted into a silt loam soil and treated preemergence with test chemicals formulated in a non-phytotoxic solvent mixture which included a surfactant.
(§3) At the same time, plants from these crop and weed species and also horseweed (Canada horseweed, Conyza canadensis), smartweed (ladysthumb smartweed, Polygonum persicaria), waterhemp_RES1, (ALS & Triazine resistant common waterhemp, Amaranthus rudis), and waterhemp_RES2, (ALS & HPPD resistant common waterhemp, Amaranthus rudis) were treated with postemergence applications of test chemicals formulated in the same manner. Plants ranged in height from 2 to 18 cm for postemergence treatments (1- to 4-leaf stage). Treated plants and controls were maintained in a greenhouse for 14 to 21 days, after which time all species were compared to controls and visually evaluated. Plant response ratings, summarized in Table F, are based on a scale of 0 to 100 where 0 is no effect and 100 is complete control. A dash (-) response means no test result.

[3] = system: johnsongrass; assay: Test F preemergence; assay type: in vivo, Sorghum halepense
Method in brief: as §1

[4] = system: speedwell; assay: Test D preemergence; assay type: in vivo, Veronica persica; settings: scale 0 to 100
Method in brief: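 Preemergence: seeds sown in silt loam and sprayed with compounds in a non-phytotoxic solvent with surfactant; postemergence: plants at 2 to 18 cm (1- to 4-leaf stage) in peat-based medium treated likewise. After 14 to 21 days in controlled growth conditions, injury rated visually versus controls on 0 (no effect) to 100 (complete control) scale.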

[5] = system: buckwheat, wild; assay: Test D preemergence; assay type: in vivo, Polygonum convolvulus; settings: scale 0 to 100
Excerpt: (§4) Seeds of plant species selected from bluegrass (annual bluegrass, Poa annua), blackgrass (Alopecurus myosuroides), canarygrass (littleseed canarygrass, Phalaris minor), chickweed (common chickweed, Stellaria media), galium (catchweed bedstraw, Galium aparine), bromegrass, downy (downy bromegrass, Bromus tectorum), field poppy (Papaver rhoeas), field violet (Viola arvensis), foxtail, green (green foxtail, Setaria viridis), deadnettle (henbit deadnettle, Lamium amplexicaule), ryegrass, Italian (Italian ryegrass, Lolium multiflorum), kochia (Kochia scoparia), lambsquarters (Chenopodium album), oilseed rape (Brassica napus), pigweed (redroot pigweed, Amaranthus retroflexus), chamomile (scentless chamomile, Matricaria inodora), speedwell (bird's-eye speedwell, Veronica persica), barley, spring (spring barley, Hordeum vulgare), wheat, spring (spring wheat, Triticum aestivum), buckwheat, wild (wild buckwheat, Polygonum convolvulus), mustard, wild (wild mustard, Sinapis arvensis), oat, wild (wild oat, Avena fatua), radish, wild (wild radish, Raphanus raphanistrum), windgrass (Apera spica-venti), Russian thistle (Salsola kali), barley, winter (winter barley, Hordeum vulgare), and wheat, winter (winter wheat, Triticum aestivum) were planted into a silt loam soil and treated preemergence with test chemicals formulated in a non-phytotoxic solvent mixture which included a surfactant.
(§5) At the same time, these species were planted in pots containing Redi-Earth® planting medium (Scotts Company, 14111 Scottslawn Road, Marysville, Ohio 43041) comprising spaghnum peat moss, vermiculite, wetting agent and starter nutrients and treated with postemergence applications of the test chemicals formulated in the same manner. Plants ranged in height from 2 to 18 cm (1- to 4-leaf stage). Treated plants and controls were maintained in a controlled growth environment for 14 to 21 days after which time all species were compared to controls and visually evaluated. Plant response ratings, summarized in Table D, are based on a scale of 0 to 100 where 0 is no effect and 100 is complete control. A dash (-) response means no test result.

[6] = system: deadnettle; assay: Test D preemergence; assay type: in vivo, Lamium amplexicaule; settings: scale 0 to 100
Excerpt: as §4, §5

[7] = system: kochia; assay: Test F preemergence; assay type: in vivo, Kochia scoparia
Excerpt: as §2, §3

[8] = Preemergence, 31 g ai/ha, scale 0 to 100
[9] = Preemergence, 62 g ai/ha, scale 0 to 100
[10] = Preemergence, 125 g ai/ha, scale 0 to 100
[11] = preemergence, 8 g ai/ha, scale 0 to 100, 100 is complete control
[12] = preemergence, 16 g ai/ha, scale 0 to 100, 100 is complete control

SMILES | Plant response rating, Hairy Beggarticks [1, 9] | Plant response rating, Hairy Beggarticks [1, 10] | Plant response rating, Hairy Beggarticks [1, 11] | Plant response rating, Smartweed [2] | Plant response rating, Johnsongrass [3, 9] | Plant response rating, Johnsongrass [3, 10] | Plant response rating, Johnsongrass [3, 11] | Plant response rating, Speedwell ([4]; 62 g ai/ha) | Plant response rating, Speedwell ([4]; 125 g ai/ha) | Plant response rating, Speedwell ([4]; 250 g ai/ha) | Plant response rating, Buckwheat, Wild ([5]; 31 g ai/ha) | Plant response rating, Buckwheat, Wild ([5]; 62 g ai/ha) | Plant response rating, Buckwheat, Wild ([5]; 125 g ai/ha) | Plant response rating, Buckwheat, Wild ([5]; 250 g ai/ha) | Plant response rating, Deadnettle ([6]; 31 g ai/ha) | Plant response rating, Deadnettle ([6]; 125 g ai/ha) | Plant response rating, Deadnettle ([6]; 250 g ai/ha) | Plant response rating, Kochia [7, 9] | Plant response rating, Kochia [7, 10] | Plant response rating, Kochia [7, 11] | further results
CCCc1cc(C(=O)NCC(F)(F)F)nn1Cc1ccnc(C(F)(F)F)c1 [Compound 105] | 20 | 40 | 0 | 100 | 98 | 98 | 0 | 100 | 100 | 100 | 85 | 90 | 95 | 100 | 5 | 20 | 35 | 100 | 100 | 0 | Plant response rating, Hairy Beggarticks [1, 8]: 0; Plant response rating, Hairy Beggarticks [1, 12]: 0; Plant response rating, Johnsongrass [3, 8]: 75; Plant response rating, Johnsongrass [3, 12]: 25; Plant response rating, Speedwell ([4]; 31 g ai/ha): 100; Plant response rating, Kochia [7, 8]: 100; Plant response rating, Kochia [7, 12]: 80
CCOc1cc(C(=O)NC(C)C)nn1Cc1ccnc(C(F)(F)F)c1 [Compound 188] | 0 | 0 | 0 | 95 | 80 | 95 | 0 | 100 | 100 | 100 | 100 | 100 | 100 | 100 | 100 | 100 | 100 | 98 | 100 | 0 | Plant response rating, Deadnettle ([6]; 62 g ai/ha): 100
